Data taken from PubChem BioAssay (NCI).
Several values for one entry are separate records, joined by “and”; a condition that tells them apart may be missing. Identical values can stand only once.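 Following 48 hours of exposure in 96-well plates, responses at five concentrations were used to interpolate endpoints linearly. GI50 = concentration required for 50% inhibition of growth. TGI marks complete inhibition of growth.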

Experiments:
Assay in all cases: DTP human tumour cell line panel, 48 h
ACHN renal = system: ACHN renal
HOP-62 NSCLC = system: HOP-62 NSCLC
HOP-92 NSCLC = system: HOP-92 NSCLC
MDA-N = system: MDA-N
NCI-H460 lung = system: NCI-H460 lung
OVCAR-3 ovarian = system: OVCAR-3 ovarian
OVCAR-4 ovarian = system: OVCAR-4 ovarian
SF-295 CNS = system: SF-295 CNS
T-47D breast = system: T-47D breast
EKVX NSCLC = system: EKVX NSCLC
SF-539 CNS = system: SF-539 CNS
NCI-H522 lung = system: NCI-H522 lung

CN1C(=O)C(CC=O)(C(C)(C)C)c2ccccc21 (configuration not stated)
TGI (ACHN renal): > 100 µM
TGI (HOP-62 NSCLC): > 100 µM
TGI (HOP-92 NSCLC): > 100 µM
TGI (MDA-N): > 100 µM
TGI (NCI-H460 lung): > 100 µM
TGI (OVCAR-3 ovarian): > 100 µM
TGI (OVCAR-4 ovarian): > 100 µM
TGI (SF-295 CNS): > 100 µM
TGI (T-47D breast): > 100 µM

CC12CC(C#N)(C#N)C(C#N)(CO1)C(=N)O2 (configuration not stated)
TGI (ACHN renal): > 100 µM
TGI (EKVX NSCLC): > 100 µM
TGI (HOP-92 NSCLC): > 100 µM
TGI (MDA-N): > 100 µM
TGI (NCI-H460 lung): > 100 µM
TGI (OVCAR-3 ovarian): > 100 µM
TGI (OVCAR-4 ovarian): > 100 µM
TGI (SF-295 CNS): > 100 µM
TGI (SF-539 CNS): > 100 µM
TGI (T-47D breast): > 100 µM

CCOC(=O)c1cc(C2(O)CCN(CC(C)CC)C2=O)c(-c2cc(C)no2)[nH]1 (configuration not stated)
TGI (EKVX NSCLC): > 100 µM
TGI (HOP-62 NSCLC): > 100 µM
TGI (HOP-92 NSCLC): > 100 µM
TGI (MDA-N): > 100 µM
TGI (NCI-H460 lung): > 100 µM
TGI (OVCAR-3 ovarian): > 100 µM
TGI (OVCAR-4 ovarian): > 100 µM
TGI (SF-295 CNS): > 100 µM
TGI (SF-539 CNS): > 100 µM
TGI (T-47D breast): > 100 µM

CC(C)C1=C(Cc2ccccc2)C(=O)O/C1=C\c1cc(Cl)c(O)c(Cl)c1
TGI (ACHN renal): 33 µM
TGI (EKVX NSCLC): 65.1 µM
TGI (HOP-62 NSCLC): 42.4 µM
TGI (MDA-N): 37.4 µM
TGI (NCI-H460 lung): 41.2 µM
TGI (OVCAR-3 ovarian): 27.2 µM
TGI (OVCAR-4 ovarian): 30.1 µM
TGI (SF-295 CNS): 30.8 µM
TGI (SF-539 CNS): 44.4 µM

COc1ccc(OC)c(N2C(=O)CSC2c2cc(OC)c(OC)c(OC)c2)c1 (configuration not stated)
TGI (ACHN renal): > 100 µM
TGI (EKVX NSCLC): > 100 µM
TGI (HOP-92 NSCLC): > 100 µM
TGI (MDA-N): > 100 µM
TGI (NCI-H460 lung): > 100 µM
TGI (NCI-H522 lung): > 100 µM
TGI (OVCAR-3 ovarian): > 100 µM
TGI (OVCAR-4 ovarian): > 100 µM
TGI (SF-295 CNS): > 100 µM
TGI (SF-539 CNS): > 100 µM

CCCC(O)C(NC(=O)CCl)C(=O)O (configuration not stated)
TGI (EKVX NSCLC): > 100 µM
TGI (HOP-62 NSCLC): > 100 µM
TGI (HOP-92 NSCLC): > 100 µM
TGI (NCI-H460 lung): > 100 µM
TGI (NCI-H522 lung): > 100 µM
TGI (OVCAR-3 ovarian): > 100 µM
TGI (OVCAR-4 ovarian): > 100 µM
TGI (SF-295 CNS): > 100 µM
TGI (SF-539 CNS): > 100 µM

CCOC(=O)c1ccc(C(=O)/C(C#N)=C2\CCCN2C)[nH]1
TGI (ACHN renal): > 100 µM
TGI (EKVX NSCLC): > 100 µM
TGI (HOP-62 NSCLC): > 100 µM
TGI (MDA-N): > 100 µM
TGI (NCI-H460 lung): > 100 µM
TGI (NCI-H522 lung): > 100 µM
TGI (OVCAR-3 ovarian): > 100 µM
TGI (OVCAR-4 ovarian): > 100 µM
TGI (SF-295 CNS): > 100 µM
TGI (T-47D breast): > 100 µM

CN(CCN(C)C(=S)NN)C(=S)NN
TGI (ACHN renal): > 100 µM
TGI (EKVX NSCLC): > 100 µM
TGI (HOP-62 NSCLC): > 100 µM
TGI (MDA-N): > 100 µM
TGI (NCI-H460 lung): > 100 µM
TGI (NCI-H522 lung): > 100 µM
TGI (OVCAR-3 ovarian): > 100 µM
TGI (OVCAR-4 ovarian): > 100 µM
TGI (SF-295 CNS): > 100 µM
TGI (T-47D breast): > 100 µM

CC(CCC#N)(CCC#N)C(=O)CC(O)(C(F)(F)F)C(F)(F)F
TGI (ACHN renal): 20.2 µM
TGI (EKVX NSCLC): 44.1 µM
TGI (HOP-62 NSCLC): 38.7 µM
TGI (HOP-92 NSCLC): 15.6 µM
TGI (MDA-N): 4.88 µM
TGI (NCI-H460 lung): 39 µM
TGI (OVCAR-3 ovarian): 7.73 µM
TGI (OVCAR-4 ovarian): 8.01 µM
TGI (SF-295 CNS): 41 µM
TGI (SF-539 CNS): 8.75 µM
TGI (T-47D breast): 16.2 µM

O=P(O)(Cc1ccccc1)c1ccccc1-c1ccccc1
TGI (ACHN renal): > 100 µM
TGI (EKVX NSCLC): > 100 µM
TGI (HOP-62 NSCLC): > 100 µM
TGI (MDA-N): > 100 µM
TGI (NCI-H460 lung): > 100 µM
TGI (NCI-H522 lung): > 100 µM
TGI (OVCAR-4 ovarian): > 100 µM
TGI (SF-295 CNS): > 100 µM
TGI (SF-539 CNS): > 100 µM
TGI (T-47D breast): > 100 µM

CC12CCC3C(CCC4=CC(O)CCC43C=O)C1(O)CCC2c1ccc(=O)oc1 (configuration not stated)
TGI (EKVX NSCLC): 0.059 µM
GI50 (HOP-62 NSCLC): 0.00158 µM
TGI (HOP-62 NSCLC): 0.0147 µM and 0.0573 µM
TGI (HOP-92 NSCLC): 0.0404 µM
TGI (NCI-H460 lung): 0.0131 µM
TGI (NCI-H522 lung): 0.00741 µM
TGI (OVCAR-3 ovarian): 0.0153 µM
TGI (OVCAR-4 ovarian): 0.0253 µM
GI50 (SF-295 CNS): 0.05 µM
TGI (SF-295 CNS): 0.0466 µM and 0.107 µM
GI50 (SF-539 CNS): 0.05 µM
TGI (SF-539 CNS): 0.0115 µM and 0.0515 µM

CC[C@]1(Cc2ccc(OC)c(OC)c2)[C@@H]2C[C@@H](C3OCCO3)ON2O[C@H](OC2CCCC2(c2ccccc2)c2ccccc2)[C@@H]1OC(C)=O (some centres not stated)
TGI (ACHN renal): 33.5 µM
TGI (EKVX NSCLC): 44.6 µM
TGI (HOP-62 NSCLC): 41.5 µM
TGI (MDA-N): > 100 µM
TGI (NCI-H460 lung): 34.7 µM
TGI (NCI-H522 lung): 29.7 µM
TGI (OVCAR-3 ovarian): 25.4 µM
TGI (SF-295 CNS): 39.1 µM
TGI (SF-539 CNS): > 100 µM
TGI (T-47D breast): 50.3 µM

CN(C)/C=N/n1c2ccccc2c2ccccc21
TGI (ACHN renal): > 100 µM
TGI (EKVX NSCLC): > 100 µM
TGI (HOP-62 NSCLC): > 100 µM
TGI (MDA-N): > 100 µM
TGI (NCI-H460 lung): > 100 µM
TGI (NCI-H522 lung): > 100 µM
TGI (OVCAR-3 ovarian): > 100 µM
TGI (OVCAR-4 ovarian): > 100 µM
TGI (SF-295 CNS): > 100 µM
TGI (SF-539 CNS): > 100 µM
TGI (T-47D breast): > 100 µM

COc1cc(/C=C/C(=O)O)ccc1C(=O)OCc1ccccc1
TGI (EKVX NSCLC): > 100 µM
TGI (HOP-62 NSCLC): > 100 µM
TGI (HOP-92 NSCLC): > 100 µM
TGI (NCI-H460 lung): > 100 µM
TGI (NCI-H522 lung): > 100 µM
TGI (OVCAR-3 ovarian): > 100 µM
TGI (OVCAR-4 ovarian): > 100 µM
TGI (SF-295 CNS): > 100 µM
TGI (SF-539 CNS): > 100 µM

COC(=O)c1c(O)ccc2c1c1c(n2Cc2ccc(Cl)cc2Cl)C(=O)c2ccccc2C1
TGI (HOP-62 NSCLC): > 100 µM
TGI (MDA-N): > 100 µM
TGI (NCI-H460 lung): > 100 µM
TGI (OVCAR-3 ovarian): > 100 µM
TGI (OVCAR-4 ovarian): 70.6 µM
TGI (SF-539 CNS): > 100 µM
TGI (T-47D breast): > 100 µM

CCc1nc2ccc(N=NN(C)C)cc2[nH]1
TGI (ACHN renal): > 100 µM
TGI (EKVX NSCLC): > 100 µM
TGI (HOP-62 NSCLC): > 100 µM
TGI (MDA-N): > 100 µM
TGI (NCI-H460 lung): > 100 µM
TGI (NCI-H522 lung): > 100 µM
TGI (OVCAR-3 ovarian): > 100 µM
TGI (OVCAR-4 ovarian): > 100 µM
TGI (T-47D breast): > 100 µM

Cc1c(CNc2ccc(C(=O)NC(CC(=O)O)C(=O)O)cc2)ccc2nc(N)nc(N)c12 (configuration not stated)
TGI (ACHN renal): > 1000 µM
GI50 (EKVX NSCLC): > 1000 µM
TGI (EKVX NSCLC): > 1000 µM
TGI (HOP-62 NSCLC): > 1000 µM
GI50 (HOP-92 NSCLC): > 1000 µM
TGI (HOP-92 NSCLC): > 1000 µM
TGI (MDA-N): > 1000 µM
TGI (NCI-H460 lung): > 1000 µM
GI50 (NCI-H522 lung): 0.57 µM
TGI (NCI-H522 lung): > 73.8 µM and 691 µM
GI50 (OVCAR-3 ovarian): 34.6 µM
TGI (OVCAR-3 ovarian): > 1000 µM
GI50 (OVCAR-4 ovarian): > 1000 µM
TGI (OVCAR-4 ovarian): > 1000 µM
TGI (SF-295 CNS): > 1000 µM
TGI (SF-539 CNS): > 1000 µM

Cc1cn(CCCCCOC(=O)NC(CCCN=C(N)N)C(=O)O)c(=O)[nH]c1=O (configuration not stated)
TGI (ACHN renal): > 100 µM
TGI (EKVX NSCLC): > 100 µM
TGI (HOP-62 NSCLC): > 100 µM
TGI (HOP-92 NSCLC): > 100 µM
TGI (MDA-N): 31.3 µM
TGI (NCI-H460 lung): > 100 µM
TGI (OVCAR-3 ovarian): > 100 µM
TGI (OVCAR-4 ovarian): > 100 µM
TGI (SF-295 CNS): > 100 µM
TGI (SF-539 CNS): > 100 µM
TGI (T-47D breast): > 100 µM

COc1cc2c(cc1O)C1C(O)C(O)C=C3CCN(C2)C31 (configuration not stated)
TGI (ACHN renal): 7.87 µM
TGI (EKVX NSCLC): 14.8 µM
TGI (HOP-62 NSCLC): 10.9 µM
TGI (HOP-92 NSCLC): 5.92 µM
TGI (NCI-H460 lung): 10.1 µM
TGI (NCI-H522 lung): 4.29 µM
TGI (OVCAR-3 ovarian): 8.12 µM
TGI (OVCAR-4 ovarian): 4.84 µM
TGI (SF-295 CNS): 17.6 µM
TGI (SF-539 CNS): 4.68 µM

COc1ccc(CCN=C2OCc3ccccc32)cc1OC
TGI (ACHN renal): > 100 µM
TGI (EKVX NSCLC): > 100 µM
TGI (HOP-92 NSCLC): > 100 µM
TGI (MDA-N): > 100 µM
TGI (NCI-H460 lung): > 100 µM
TGI (OVCAR-4 ovarian): > 100 µM
TGI (SF-295 CNS): > 100 µM
TGI (SF-539 CNS): 63.2 µM
TGI (T-47D breast): 86.6 µM

CC(C)=C1C(=O)C[C@]2(C)C[C@H]3/C(=C(/C)CCC12)CC[C@@]3(C)O (some centres not stated)
TGI (ACHN renal): > 50 µM
TGI (EKVX NSCLC): > 50 µM
TGI (HOP-62 NSCLC): > 50 µM
TGI (HOP-92 NSCLC): > 50 µM
TGI (NCI-H522 lung): > 50 µM
TGI (OVCAR-3 ovarian): > 50 µM
TGI (OVCAR-4 ovarian): > 50 µM
TGI (SF-295 CNS): > 50 µM
TGI (SF-539 CNS): > 50 µM
TGI (T-47D breast): > 50 µM
